Read-outs that look alike come from different tables or passages of the source.
Columns and labels:
human CD25 = target: T1, human CD25 (Homo sapiens, UniProt P01589); test: Flow cytometry binding of ADCT-301-FITC on concanavalin-A activated CD25-positive human PBMCs; details: CD25-PE gate
T1 construct: endogenous in cells
T1 sequence (P01589 22-272): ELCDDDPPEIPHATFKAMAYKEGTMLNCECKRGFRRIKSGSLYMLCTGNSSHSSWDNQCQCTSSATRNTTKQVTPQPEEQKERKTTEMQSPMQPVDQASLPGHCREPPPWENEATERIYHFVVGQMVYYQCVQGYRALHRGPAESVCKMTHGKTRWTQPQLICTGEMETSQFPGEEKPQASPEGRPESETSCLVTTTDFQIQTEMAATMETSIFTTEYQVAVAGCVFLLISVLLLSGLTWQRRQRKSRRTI
Procedure: FIG. 1. Affinity of ADCT-301 for human CD25 as determined by flow cytometry on concanavalin-A activated CD25-positive human PBMCs. ADCT-301-FITC binding was assessed in a CD25-PE (phycoerythrin) gate across the dilution series by measuring median fluorescent intensity (MFI) in channel FL1H. Isotype, non-targeting-ADC-FITC was used as the non-binding ADC control.
Relative binding affinity of ADCT-301 was measured by flow cytometry on Concanavalin A-activated CD25-positive lymphocytes. Surface plasmon resonance (SPR, Biacore) was used to measure binding affinity and binding kinetics of HuMax®-TAC and ADCT-301 on recombinant sCD25 ectodomain attached to a gold surface.

Daudi = test: MTS cell proliferation assay, in vitro cytotoxicity; type: cell-based; details: Burkitt's lymphoma, CD25 negative, 96 hours
Procedure: (§1) FIG. 2. In vitro cytotoxicity of ADCT-301 on six lymphoma cell lines as measured by the MTS cell proliferation assay. Cells were incubated with increasing concentrations of ADCT-301 for 96 hours. Data is presented as the mean±SD
(§2) Cell surface protein copy number of CD25 and CD30 was determined on various lymphoma cell lines by flow cytometric Qifikit® assay. Cytotoxicity of ADCT-301 on these cell lines was determined by cell proliferation assay (MTS) to determine whether there is a correlation between CD25 copy number and in vitro cytotoxic potency.

HDLM-2 = test: as above; type: cell-based; details: HDLM-2, Hodgkin's lymphoma, CD25 expressing, 96 hours
Procedure: as §1, §2

HuT 78 = test: as above; type: cell-based; details: HuT 78, cutaneous T cell lymphoma, CD25 negative, 96 hours
Procedure: as §1, §2

Karpas 299 = test: as above; type: cell-based; details: Karpas 299, anaplastic large cell lymphoma, CD25 expressing, 96 hours
Procedure: as §1, §2

L540 = test: as above; type: cell-based; details: L540, Hodgkin's lymphoma, CD25 expressing, 96 hours
Procedure: as §1, §2

SU-DHL-1 = test: as above; type: cell-based; details: SU-DHL-1, anaplastic large cell lymphoma, CD25 expressing, 96 hours
Procedure: as §1, §2

[1] = system: CD25-negative Ramos cells; test: Bystander effect in co-culture of Karpas 299 and Ramos cells, flow cytometry; type: cell-based, human; details: 96 hour exposure, co-culture with CD25-positive Karpas 299, compared to Ramos cultured alone
Procedure: FIG. 3. […] The histogram depicts the percentage of viable populations of cells as measured by flow cytometry.
Readout was Karpas 299 and Ramos cell numbers and the viability of these cells both of which were determined by flow cytometry.
Ramos cells are human B lymphocytes of Burkitt's lymphoma.

[2] = system: CD25-negative Ramos cells; details: second culture 96 hrs
Procedure: FIG. 5. […] Data is presented as the mean±SD.
In these experiments, an first 48 hr culture of either (A) CD25-negative cells Ramos cells, or (B) CD25-positive Karpas 299, with ADCT-301 was performed. When this first culture was complete, the culture was centrifuged and 50 μl of the supernatant media transferred to 50 μl of a freshly prepared culture of either (A) CD25-negative cells Ramos cells, or (B) CD25-positive Karpas 299. This second culture was performed for 96 hrs, then cytotoxicity assessed by the MTS assay.

[3] = system: CD25-positive SuDHL-1 cells; test: Cytotoxicity on CD25-positive SuDHL-1 cells, cleavable vs non-cleavable linker; type: cell-based; details: direct treatment of CD25-positive SuDHL-1 cells
[4] = system: CD25-negative Burkitt lymphoma Ramos cells; test: Conditioned media transfer from SuDHL-1 culture to Ramos cells, MTS assay; type: cell-based, human; details: media conditioned by 48 hr culture of CD25-positive SuDHL-1 cells; second culture 96 hrs
Procedure: FIG. 6. Comparison of CD25−ve bystander cytotoxicity observed with cleavable vs. non-cleavable linkers by in vitro conditioned media transfer. […] The error bars indicate % cell viability±SD of 3 independent repeats
The effect of linker cleavablility was investigated in conditioned media transfer experiments. In these experiments, a first 48 hr culture CD25-positive SuDHL-1 cells was performed with either (1) of ADCT-301 (cleavable linker), or (2)NC-1 (composed of the recombinant human IgG1, HuMax®-TAC against human CD25 attached to a pyrrolobenzodiazepine PBD warhead with non-cleavable linker according to the alternative aspect of the disclosure).

ADCT-301: recombinant human IgG1, HuMax-TAC against human CD25 attached to a pyrrolobenzodiazepine PBD warhead, cleavable linker; drug-antibody ratio 2.3±0.3; HuMax-TAC-E of WO2014/57119
EC50 (affinity for human CD25, median fluorescent intensity) (human CD25): ≈ 0.03 μg/ml
GI50 (Daudi): > 10000 pM
Mean GI50 (Daudi): >>150 ng/ml
GI50 (HDLM-2): 51.1 pM
Mean GI50 (HDLM-2): 7.67 ng/mL
GI50 (HuT 78): > 10000 pM
Mean GI50 (HuT 78): >>150 ng/ml
GI50 (Karpas 299): 36.5 pM
Mean GI50 (Karpas 299): 5.47 ng/mL
GI50 (L540): 21.6 pM
Mean GI50 (L540): 3.25 ng/mL
GI50 (SU-DHL-1): 16.5 pM
Mean GI50 (SU-DHL-1): 2.48 ng/mL
Bystander killing of Ramos cells in co-culture [1]: specific bystander killing of Ramos cells
Cytotoxicity to Ramos cells of conditioned media ([2]; media conditioned by 48 hr culture of CD25+ve Karpas299 cells): potent cytotoxicity
Cytotoxicity to Ramos cells of conditioned media ([2]; media conditioned by 48 hr culture of CD25-ve Ramos cells): does not lead to any observable increase in cytoxicity
Sensitivity of SuDHL-1 cells to treatment [3]: equally sensitive
Cytotoxicity to Ramos cells of conditioned media [4]: shows cytotoxicity of CD25-negative Burkitt lymphoma Ramos cells
